How the values were obtained:
Type in all cases: cell-based
[1] = tested on: MCF7 cells; experiment: Cell viability assay ([…]-GLO, 6-day treatment); details: Homo sapiens, MCF7, 144 h; MCF-7 cells, 6 days, CTG; read-out: Inhibition of Cancerous Cells IC50 MCF-7
Summary of the method: (§1)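 MCF7 (MEM) and T47D (RPMI with insulin), both with 10% FBS, at 1,000 cells/well, treated with a 10-point compound dose series for 6 days, with medium and compound refreshed once. Viability read by CellTiter-Glo luminescence.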

[2] = tested on: T47D cells; experiment: Cell viability assay ([…]-GLO, 6-day treatment); details: Homo sapiens, 144 h, 6 days, CTG, read-out: Inhibition of Cancerous Cells IC50 T47D
Summary of the method: as §1

[3] = molecular target: T1, ERα (Homo sapiens, UniProt P03372); experiment: Protein degradation assay: ERα in MCF-7 cells via western blot; details: 6 h; for ERα Protein Degradation 1 nM: 1 nM compound; for ERα Protein Degradation 10 nM: 10 nM compound; for ERα Protein Degradation 100 nM: 100 nM compound
T1 construct: degrading an ERα in MCF-7 cells via a western blot; endogenous in cells; host or cells: MCF-7
T1 sequence (P03372 1-595): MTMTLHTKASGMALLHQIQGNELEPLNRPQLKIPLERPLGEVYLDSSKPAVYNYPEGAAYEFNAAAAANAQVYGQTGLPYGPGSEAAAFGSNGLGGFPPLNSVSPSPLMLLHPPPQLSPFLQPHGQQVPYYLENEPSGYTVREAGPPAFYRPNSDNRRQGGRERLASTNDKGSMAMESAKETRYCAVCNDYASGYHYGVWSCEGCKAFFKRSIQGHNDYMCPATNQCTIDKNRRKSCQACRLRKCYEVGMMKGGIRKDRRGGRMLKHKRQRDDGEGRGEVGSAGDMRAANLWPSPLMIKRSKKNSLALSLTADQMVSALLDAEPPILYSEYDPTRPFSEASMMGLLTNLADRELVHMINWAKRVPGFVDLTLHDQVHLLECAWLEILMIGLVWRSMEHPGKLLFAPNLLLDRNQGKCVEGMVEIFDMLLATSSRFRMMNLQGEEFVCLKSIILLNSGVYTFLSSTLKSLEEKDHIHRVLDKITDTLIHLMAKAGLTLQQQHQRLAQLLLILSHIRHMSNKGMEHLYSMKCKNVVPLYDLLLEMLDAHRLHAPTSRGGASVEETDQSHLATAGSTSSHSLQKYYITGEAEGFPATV
Summary of the method: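 MCF-7 cells in MEM/10% FBS with insulin, seeded 300,000/well, treated 6 h at set concentrations (e.g., 1 nM–1 μM). Whole-cell lysates immunoblotted for ERα with GAPDH loading control, chemiluminescent detection; percentage degradation reported in binned categories (≥50%, 25–50%, 10–25%, <10%).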

Row | Compound | IC50 [1] | IC50 [2] | ERα Protein Degradation 1 nM [3] | ERα Protein Degradation 10 nM [3] | ERα Protein Degradation 100 nM [3]
1 | O=C1CCC(Nc2cccc(NC(=O)CN3CCN(CC4CCN(c5ccc([C@@H]6c7ccc(O)cc7CC[C@@H]6c6ccccc6)cc5)CC4)CC3)c2)C(=O)N1 (stereo partly drawn) [Compound B19, N-(3-((2,6-dioxopiperidin-3-yl)amino)phenyl)-2-(4-((1-(4-((1R,2S)-6-hydroxy-2-phenyl-1,2,3,4-tetrahydronaphthalen-1-yl)phenyl)piperidin-4-yl)methyl)piperazin-1-yl)-acetamide] | 2.5 nM | 0.96 nM | D (a percentage degradation value of less than 10%) | D (a percentage degradation value of less than 10%) | D (a percentage degradation value of less than 10%)
2 | Cc1c(-c2ccc(O)cc2)n(Cc2ccc(OCCCCN3CCN(C(=O)COc4ccc5c(c4)CN(C4CCC(=O)NC4=O)C5=O)CC3)cc2)c2ccc(O)cc12 (stereo not shown) [Compound E3, 3-(5-(2-(4-(4-(4-((5-Hydroxy-2-(4-hydroxyphenyl)-3-methyl-1H-indol-1-yl)-methyl)phenoxy)butyl)piperazin-1-yl)-2-oxoethoxy)-1-oxoisoindolin-2-yl)piperidine-2,6-dione] | 4.5 nM | 3.2 nM | B (a percentage degradation value of less than 50% and no less than 25%) | B (a percentage degradation value of less than 50% and no less than 25%) | B (a percentage degradation value of less than 50% and no less than 25%)

These reach a lower IC50 [1]. Values come first.

Row | IC50 [1] | IC50 [2] | Compound | ERα Protein Degradation 1 nM [3] | ERα Protein Degradation 10 nM [3] | ERα Protein Degradation 100 nM [3]
3 | 0.73 nM | 1.2 nM | O=C1CCC(Nc2cccc(NC3CCN(CC4CCN(c5ccc([C@@H]6c7ccc(O)cc7CC[C@@H]6c6ccccc6)cc5)CC4)CC3)c2)C(=O)N1 (stereo partly drawn) [Compound B14, 3-((3-((1-((1-(4-((1R,2S)-6-hydroxy-2-phenyl-1,2,3,4-tetrahydronaphthalen-1-yl)phenyl)piperidin-4-yl)methyl)piperidin-4-yl)amino)phenyl)amino)piperidine-2,6-dione] | D (a percentage degradation value of less than 10%) | D (a percentage degradation value of less than 10%) | D (a percentage degradation value of less than 10%)
4 | 0.68 nM | 0.22 nM | O=C1CCC(N2Cc3cc(N4CCN(CC5CCN(c6ccc(C7c8ccc(O)cc8CC[C@@H]7c7ccccc7)cc6)CC5)CC4)ccc3C2=O)C(=O)N1 (stereo in doubt) [Compound A16, (S)-3-(5-(4-((1-(4-((1R,2S)-6-Hydroxy-2-phenyl-1,2,3,4-tetrahydronaphthalen-1-yl)phenyl)piperidin-4-yl)methyl)piperazin-1-yl)-1-oxoisoindolin-2-yl)piperidine-2,6-dione] | B (a percentage degradation value of less than 50% and no less than 25%) | A (a percentage degradation value of no less than 50%) | A (a percentage degradation value of no less than 50%)
5 | < 0.01 nM | 0.24 nM | O=C1CCC(N2Cc3c(cc(F)cc3C3CCN(CCCCOc4ccc([C@@H]5c6ccc(O)cc6CC[C@@H]5c5ccccc5)cc4)CC3)C2=O)C(=O)N1 (stereo partly drawn) [Compound A1, 3-(6-fluoro-4-(1-(4-(4-((1R,2S)-6-hydroxy-2-phenyl-1,2,3,4-tetrahydro-naphthalen-1-yl)phenoxy)butyl)piperidin-4-yl)-1-oxoisoindolin-2-yl)piperidine-2,6-dione] | C (a percentage degradation value of less than 25% and no less than 10%) | C (a percentage degradation value of less than 25% and no less than 10%) | B (a percentage degradation value of less than 50% and no less than 25%)
